Test results published in US7838528B2, “Substituted bicyclic 8-pyrrolidinoxanthines, methods for their production, pharmaceutical formulations and their use” (sanofi-aventis Deutschland GmbH, priority 2004, dated 2010).
Where a name gives a salt, the structure may show the parent alone.

Biological target: T1, DPP-IV from porcine kidney (Sus scrofa, UniProt P22411)
T1 construct: DPP-IV from porcine kidney (Sigma Chemical GmbH, Munich DE); purchased Sigma Chemical GmbH, Munich DE; host or cells: porcine kidney (tissue-derived enzyme)
T1 sequence (P22411 whole entry): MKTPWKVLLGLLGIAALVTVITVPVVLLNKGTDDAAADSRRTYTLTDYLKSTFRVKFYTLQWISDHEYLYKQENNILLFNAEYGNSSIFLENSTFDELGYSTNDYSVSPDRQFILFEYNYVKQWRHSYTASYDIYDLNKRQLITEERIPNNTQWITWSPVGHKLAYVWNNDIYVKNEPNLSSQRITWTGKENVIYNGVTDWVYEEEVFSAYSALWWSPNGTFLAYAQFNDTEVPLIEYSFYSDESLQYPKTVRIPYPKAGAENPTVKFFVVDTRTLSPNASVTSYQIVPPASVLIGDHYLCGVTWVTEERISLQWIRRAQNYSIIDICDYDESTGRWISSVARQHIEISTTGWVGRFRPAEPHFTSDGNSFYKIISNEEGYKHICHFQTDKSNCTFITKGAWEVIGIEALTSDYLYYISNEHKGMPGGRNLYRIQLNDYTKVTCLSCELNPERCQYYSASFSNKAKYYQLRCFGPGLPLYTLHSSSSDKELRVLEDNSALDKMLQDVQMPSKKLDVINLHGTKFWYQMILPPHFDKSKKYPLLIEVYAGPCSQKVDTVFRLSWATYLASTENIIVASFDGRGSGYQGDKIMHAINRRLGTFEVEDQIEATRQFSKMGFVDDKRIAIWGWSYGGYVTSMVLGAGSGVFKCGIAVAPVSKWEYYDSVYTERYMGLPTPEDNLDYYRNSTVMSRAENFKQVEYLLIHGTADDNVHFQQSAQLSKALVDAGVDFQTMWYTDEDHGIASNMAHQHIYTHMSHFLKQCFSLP
Assay: Measurement of the DPP-IV activity (H-Ala-Pro-AFC fluorimetric assay)
Format: biochemical
Conditions: H-Ala-Pro-AFC 15 μM, DPP-IV 1 mU/ml, Tris/HCl pH 7.4, room temperature
Method: Measurement of the DPP-IV Activity: […]
a) DPP-IV from porcine kidney (Sigma Chemical GmbH, Munich DE) b) H-Ala-Pro-AFC (Bache Chemical Co., Weil am Rheine DE) […]
c) DPP-IV (1 mU/ml, final concentration) d) H-Ala-Pro-AFC (15 μM, final concentration) • in Tris/HCl (40 mM, pH 7.4), total volume 0.2 ml The reaction was carried out at room temperature at different reaction times (typically 10 min) and stopped at the end of the reaction by adding 20 μl of ZnCl2 (1 M). The H-Ala-Pro-AFC conversion was determined fluorimetrically by measuring the emission at 535 nm after excitation at 405 nm. When inhibitors were added, the added buffer volume was adapted so that a total volume of 200 μl was maintained for the assay mixture.
IC50 values for inhibitors were determined by varying the inhibitor concentrations with the stated substrate concentration of 15 μM. Ki and Km values were found by appropriate variation of substrate concentration and inhibitor concentration as described (Dixon, M. and Webb, E. C. (1979) Enzymes, third edition, pp. 47-206, Academic Press) which is herein incorporated by reference. The values for Km, IC50 and Ki were calculated using a commercially available software package (Leatherbarrow, R. J. (1992) GraFit Version 3.0, Erithacus Software Ltd. Staines, U.K.).

Row | IC50 | Structure (SMILES)
1 | 160 nM | CC(C)=CCn1c(N2CC[C@@H]3NCC[C@@H]32)nc2c1c(=O)n(CC(=O)c1ccccc1)c(=O)n2C (single isomer, unassigned) [Example 1a, 8-(cis-Hexahydro-pyrrolo[3,2-b]pyrrol-1-yl)-3-methyl-7-(3-methyl-but-2-enyl)-1-(2-oxo-2-phenyl-ethyl)-3,7-dihydro-purine-2,6-dione]
2 | 18 nM | CC(C)=CCn1c(N2CC[C@@H]3NCC[C@@H]32)nc2c1c(=O)n(CC(=O)c1ccccc1)c(=O)n2C (single isomer, unassigned) [Example 1b, 8-(cis-Hexahydro-pyrrolo[3,2-b]pyrrol-1-yl)-3-methyl-7-(3-methyl-but-2-enyl)-1-(2-oxo-2-phenyl-ethyl)-3,7-dihydro-purine-2,6-dione]
3 | 34 nM | CC(C)=CCn1c(N2CC[C@@H]3NCC[C@@H]32)nc2c1c(=O)n(CC(=O)c1ccccc1)c(=O)n2C (relative stereo) [Example 1, 8-(cis-Hexahydro-pyrrolo[3,2-b]pyrrol-1-yl)-3-methyl-7-(3-methyl-but-2-enyl)-1-(2-oxo-2-phenyl-ethyl)-3,7-dihydropurine-2,6-dione hydrochloride]
